Measured values taken from patent publication US20150038435A1, “N-TERMINALLY MODIFIED OLIGOPEPTIDES AND USES THEREOF” (Novo Nordisk A/S, priority 2012, published 2015).
Starred links: 1 amine or outer side, 2 acyl side, 3 side chain; linkers in the order of their positions; H or OH if unused. Non-standard residues stand in square brackets, D forms with d. Primed or numbered codes have the meaning given here. No end group written: not given here. *: point of attachment. γGlu = O=C(O)[C@H](CCC(=O)[*:2])N[*:1]; Stearoyl = CCCCCCCCCCCCCCCCCC(=O)*; Palmitoyl = CCCCCCCCCCCCCCCC(=O)*; Myristoyl = CCCCCCCCCCCCCC(=O)*; Lauroyl = CCCCCCCCCCCC(=O)*; PEG12′ = not defined here

Columns and labels:
Trypsin = assay: Inhibition of enzymatic degradation of a model GLP-1 (FRET substrate) by trypsin; assay type: biochemical; conditions: for EC50: read-out: EC50 Trypsin (0.001 mg/ml), 0.001 mg/ml trypsin, 37° C.
Description: (§1) The use of Förster resonance energy transfer (FRET), also known as fluorescence resonance energy transfer, substrates to monitor activity of proteolytic enzymes is known in the field (for example Anjuere, F. et al. (1993). Biochem J 291 (Pt 3), 869-73).
(§2) Model GLP-1 analogue was designed as FRET substrate by incorporation of 7-Methoxycoumarin-4-acetic acid (MCA) group as the donor chromophore and dinitrophenol group (DNP) as the acceptor chromophore.
(§3) An assay following the increase in fluorescence as a function of time was established in 96 well format using Varioskan Flash Multimode Meter (Thermo Scientific). Each well contained 70 μl of Dulbecco's phosphate buffer saline (Invitrogen catalogue #14190-094), 10 μl of 100 μM GLP-1 FRET substrate, 10 μl of N-terminally acylated peptide or oligopeptide of the invention in varying concentration and 10 μl of a stock solution of an enzyme (chymotrypsin, trypsin, elastase, etc.). The incubations were performed at 37° C. Fluorescence (320 nm excitation wavelength and 405 nm emission wavelength) was measured immediately after addition of the enzyme to the 96 well plate and also every minute for at least the next 30 minutes. The concentration of the enzyme was optimized to allow determination of slopes for the time course of initial fluorescence increase with and without the N-terminally acylated peptides or oligopeptides of the invention. The slopes were determined by linear regression of the linear part of the fluorescence trace (for example, the first 10 min of the reaction). Each assay was performed in duplicate and average of the two traces was included in the calculations. The relative effect of N-terminally acylated peptide or oligopeptides of the invention on enzymatic degradation of GLP-1 FRET substrate was obtained by comparison of the slopes achieved by the same concentration of the N-terminally acylated peptide or oligopeptides. […] This was done by plotting the slopes achieved with different concentrations of the N-terminally acylated peptide or oligopeptides of the invention as a function of their concentrations and fitting the experimental results using, for example, sigmoidal logistic regression (2 parameters, Sigma Plot v 11). Inhibition constants for the interaction between the N-terminally acylated peptide or oligopeptides of the invention and proteolytic enzymes were also obtained by performing the assay described above with varying concentrations of the inhibitor and substrate and analyzing the results, for example, by double reciprocal transformation as known to the person skilled in the art and described for example in Hubalek, F. et al., J. Med. Chem. 47, 1760-1766 (2004).
(§4) The EC50 was determined for the following compounds. EC50±standard error is reported if the results of at least 3 independent measurements were available.

Chymotrypsin = assay: Inhibition of enzymatic degradation of a model GLP-1 (FRET substrate) by chymotrypsin; assay type: biochemical; conditions: for EC50: read-out: EC50 Chymotrypsin (0.001 mg/ml), 0.001 mg/ml chymotrypsin, 37° C., ± standard error if at least 3 measurements
Description: as §1, §2, §3, §4

[1] = compound 0.1 mM, buffer containing 8% DMSO

Substance | EC50 (Trypsin) | EC50 (Chymotrypsin) | other results
N-dodecanoyl-Ala-Ala-Ala-Ala-Ala-Pro-Phe-OH [Example 141] | 187 µM | 57 µM | –
N-dodecanoyl-Ala-Ala-Pro-His-OH (Lauroyl-AAPH-OH; SMILES CCCCCCCCCCCC(=O)N[C@@H](C)C(=O)N[C@@H](C)C(=O)N1CCC[C@H]1C(=O)N[C@@H](Cc1c[nH]cn1)C(=O)O) [Example 180] | – | > 500 µM | –
N-dodecanoyl-Ala-Pro-Phe-OH [Example 35] | – | 182 µM | –
N-dodecanoyl-Gly-Ala-Pro-Tyr-OH [Example 37] | – | – | Slope of the initial increase in fluorescence obtained during incubation with 0.001 mg/ml Trypsin (Trypsin; [1]): 1.78; Slope of the initial increase in fluorescence obtained during incubation with 0.001 mg/ml Chymotrypsin (Chymotrypsin; [1]): 0.66
N-dodecanoyl-Ile-Ala-Ala-Pro-Tyr-OH [Example 40] | – | – | Slope of the initial increase in fluorescence obtained during incubation with 0.001 mg/ml Trypsin (Trypsin; [1]): 1.31; Slope of the initial increase in fluorescence obtained during incubation with 0.001 mg/ml Chymotrypsin (Chymotrypsin; [1]): 0.41
N-dodecanoyl-Leu-Thr-Trp-Pro-Tyr-OH [Example 154] | 151 µM | 27 µM | –
N-dodecanoyl-Lys-Ala-Ala-Pro-Tyr-OH [Example 44] | – | – | Slope of the initial increase in fluorescence obtained during incubation with 0.001 mg/ml Trypsin (Trypsin; [1]): 0.96; Slope of the initial increase in fluorescence obtained during incubation with 0.001 mg/ml Chymotrypsin (Chymotrypsin; [1]): 0.00
N-dodecanoyl-Thr-Ala-Ala-Pro-Phe-OH [Example 172] | 401 µM | 132 µM | –
N-dodecanoyl-βAla-βAla-Pro-Phe-Pro-OH [Example 6] | – | – | Slope of the initial increase in fluorescence obtained during incubation with 0.001 mg/ml Trypsin (Trypsin; compound 1 mM): 0.35; Slope of the initial increase in fluorescence obtained during incubation with 0.001 mg/ml Chymotrypsin (Chymotrypsin; compound 1 mM): 0.24
N-dodecanoyl-γGlu-Ala-Ala-Pro-Arg-Pro-OH [Example 27] | – | > 500 µM | –
N-dodecanoyl-γGlu-His-Ala-Ala-Pro-Tyr-OH [Example 190] | – | > 500 µM | –
N-hexadecanoyl-Ala-Ala-Pro-Phe-OH (Palmitoyl-AAPF-OH) [Example 29] | > 500 µM | 23 ± 2 µM | –
N-hexadecanoyl-Glu-Ala-Ala-Pro-D-Phe-OH [Example 144] | 72 µM | 40 µM | –
N-hexadecanoyl-Glu-Ala-Ala-Pro-D-Phe-OH [Example 186] | – | 56 µM | –
N-hexadecanoyl-Thr-Ala-Ala-Pro-Phe-OH [Example 175] | 31 µM | 17 µM | –
N-hexadecanoyl-γGlu-Ala-Ala-Pro-Phe-OH [Example 32] | 66 µM | 29 ± 4 µM | –
N-hexadecanoyl-γGlu-Ala-Ala-Pro-Phe-OH [Example 188] | 67 µM | 71 µM | –
N-hexadecanoyl-γGlu-Ala-Pro-Phe-OH (Palmitoyl-[γGlu]APF-OH; SMILES CCCCCCCCCCCCCCCC(=O)N[C@@H](CCC(=O)N[C@@H](C)C(=O)N1CCC[C@H]1C(=O)N[C@@H](Cc1ccccc1)C(=O)O)C(=O)O) [Example 149] | 57 µM | 48 µM | –
N-hexadecanoyl-γGlu-D-Ala-D-Ala-D-Pro-D-Phe-OH [Example 157] | 88 µM | 57 µM | –
N-hexadecanoyl-γGlu-D-Ala-D-Pro-D-Phe-OH [Example 182] | 33 µM | 67 µM | –
N-hexadecanoyl-γGlu-DAla-DPro-DPhe-OH [Example 155] | 76 µM | 56 µM | –
N-icosanoyl-γGlu-Ala-Ala-Pro-Phe-OH [Example 161] | 7 µM | 4 µM | –
N-icosanoyl-γGlu-Ala-Pro-Phe-OH (icosanoyl-[γGlu]APF-OH) [Example 151] | 13 µM | 9 µM | –
N-octadecanoyl-γGlu-Ala-Ala-Pro-Phe-OH [Example 160] | 16 µM | 17 µM | –
N-octadecanoyl-γGlu-Ala-Pro-Phe-OH (Stearoyl-[γGlu]APF-OH; SMILES CCCCCCCCCCCCCCCCCC(=O)N[C@@H](CCC(=O)N[C@@H](C)C(=O)N1CCC[C@H]1C(=O)N[C@@H](Cc1ccccc1)C(=O)O)C(=O)O) [Example 150] | 22 µM | 13 µM | –

Substance | EC50 (Trypsin) | EC50 (Chymotrypsin) | other results
N-tetradecanoy-γGlu-His-Ala-Ala-Pro-Tyr-OH [Example 191] | 177 µM | 136 µM | –
N-tetradecanoyl-Ala-Ala-Ala-Ala-Pro-Phe-OH [Example 140] | 374 µM | 28 µM | –
N-tetradecanoyl-Ala-Ala-Pro-D-Phe-OH [Example 185] | 44 µM | 73 µM | –
N-tetradecanoyl-Arg-His-Ala-Arg-Pro-Phe-OH [Example 197] | 16 µM | 2 µM | –
N-tetradecanoyl-D-Ala-D-Ala-D-Pro-D-Phe-OH [Example 184] | 38 µM | 69 µM | –
N-tetradecanoyl-D-His-D-Ala-D-Arg-D-Pro-D-Phe-OH [Example 195] | 7 µM | 17 µM | –
N-tetradecanoyl-Glu-Ala-Ala-Pro-D-Phe-OH [Example 174] | – | 211 µM | –
N-tetradecanoyl-Glu-Ala-Ala-Pro-Phe-OH [Example 162] | 58 µM | 94 µM | –
N-tetradecanoyl-Glu-Ala-Ala-Pro-Phe-OH [Example 163] (Myristoyl-EAAPF-OH; SMILES CCCCCCCCCCCCCC(=O)N[C@@H](CCC(=O)O)C(=O)N[C@@H](C)C(=O)N[C@@H](C)C(=O)N1CCC[C@H]1C(=O)N[C@@H](Cc1ccccc1)C(=O)O) | 271 µM | 94 µM | –
N-tetradecanoyl-Glu-Ala-Ala-Pro-Trp-OH [Example 143] | 388 µM | 14 µM | –
N-tetradecanoyl-Glu-Ala-Ala-Pro-Trp-OH [Example 187] | 130 µM | 14 µM | –
N-tetradecanoyl-Glu-Ala-Pro-Phe-OH (Myristoyl-EAPF-OH; SMILES CCCCCCCCCCCCCC(=O)N[C@@H](CCC(=O)O)C(=O)N[C@@H](C)C(=O)N1CCC[C@H]1C(=O)N[C@@H](Cc1ccccc1)C(=O)O) [Example 152] | – | 293 µM | –
N-tetradecanoyl-His-Ala-Ala-Pro-Phe-OH [Example 166] | 69 µM | 61 µM | –
N-tetradecanoyl-His-Ala-Trp-Pro-Phe-OH [Example 192] | 303 µM | 34 µM | –
N-tetradecanoyl-Leu-Ala-Ala-Pro-Tyr-OH [Example 142] | 37 µM | 20 µM | –
N-tetradecanoyl-Leu-Ala-Ala-Pro-Tyr-OH [Example 159] | 122 µM | 35 µM | –
N-tetradecanoyl-Leu-betaAla-Ala-Pro-DPhe-OH [Example 145] | 43 µM | 83 µM | –
N-tetradecanoyl-Lys-Ala-Arg-Pro-Phe-OH [Example 193] | 169 µM | 90 µM | –
N-tetradecanoyl-γGlu-Ala-Pro-D-Phe-OH [Example 168] | – | 377 µM | –
N-tetradecanoyl-γGlu-Ala-Pro-Phe-OH [Example 181] | – | 300 µM | –
N-tetradecanoyl-γGlu-D-Ala-D-Pro-D-Phe-OH [Example 183] | – | 386 µM | –
N-tetradecanoyl-γGlu-γGlu-Ala-Pro-Phe-OH [Example 169] | – | 287 µM | –
N-tetradecanoyl-γGlu-γGlu-Phe-Phe-OH [Example 171] | – | 452 µM | –
N-tetradecanoyl-γGlu-γGlu-Pro-Phe-OH [Example 170] | – | > 500 µM | –
PEG12-Ala-Ala-Pro-Phe-OH ([PEG12′]AAPF-OH) [Example 167] | – | > 500 µM | –
